Assay results reported in ChEMBL document CHEMBL1135428, “A new type of prodrug of catecholamines: an opportunity to improve the treatment of Parkinson's disease” (2002).
Active and inactive are the calls of the source. The calls are words filed in the database; no cut-off is given here.

Experiments:
Rattus norvegicus [1] = test: Subcutaneously administered dose (in vivo) in male Wistar rats in a striatal microdialysis analysis and its metabolite, 5,6-di-OH-DPAT was found to be present; format: functional
Rattus norvegicus [2] = test: Dopamine (DA) agonistic activity (% decrease in endogenous dopamine level) after peroral administration at a dose of 1.2 uM/kg; Inactive; format: functional, organism-based
Rattus norvegicus [3] = test: Dopamine (DA) agonistic activity (% decrease in endogenous dopamine level) after peroral administration at a dose of 1.2 uMl/Kg; format: functional
Rattus norvegicus [4] = test: Dopamine (DA) agonistic activity (% decrease in endogenous dopamine level) after peroral administration at a dose of 0.4 uM/Kg; format: functional

| Compound | Dose (Rattus norvegicus [1]) [µM/kg] | Decrease (Rattus norvegicus [2]) | Decrease (Rattus norvegicus [3]) [%] | Decrease (Rattus norvegicus [4]) [%] |
| --- | --- | --- | --- | --- |
| CCCN(CCC)[C@@H]1CCC2=C(CCCC2=O)C1 | 350 | inactive | – | – |
| CCCN(CCC)[C@H]1CCC2=C(CCCC2=O)C1 | 35 | – | 70 | 50 |
